According to PubChem BioAssay (NCI):
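How tested: cells in 96-well plates exposed to compound for 48 hours at five concentrations. The concentration for 50% growth inhibition is given as GI50. The concentration for full growth arrest is given as TGI.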

Columns and labels:
Assay in all cases: NCI tumour cell line growth inhibition, 48 h
XF 498 CNS = tested on: XF 498 CNS
SNB-78 CNS = tested on: SNB-78 CNS
DMS 273 small cell lung = tested on: DMS 273 small cell lung
DLD-1 colon = tested on: DLD-1 colon
M19-MEL melanoma = tested on: M19-MEL melanoma
P388/ADR leukemia = tested on: P388/ADR leukemia
DMS 114 small cell lung = tested on: DMS 114 small cell lung
KM20L2 colon = tested on: KM20L2 colon
SN12K1 renal = tested on: SN12K1 renal
LXFL 529 NSCLC = tested on: LXFL 529 NSCLC
RXF-631 renal = tested on: RXF-631 renal

SMILES | TGI (XF 498 CNS) [µM] | TGI (SNB-78 CNS) [µM] | TGI (DMS 273 small cell lung) [µM] | TGI (DLD-1 colon) [µM] | TGI (M19-MEL melanoma) [µM] | TGI (P388/ADR leukemia) [µM] | TGI (DMS 114 small cell lung) [µM] | TGI (KM20L2 colon) [µM] | TGI (SN12K1 renal) [µM] | TGI (LXFL 529 NSCLC) [µM] | TGI (RXF-631 renal) [µM] | GI50 (XF 498 CNS) [µM] | GI50 (SNB-78 CNS) [µM] | GI50 (DMS 273 small cell lung) [µM] | GI50 (M19-MEL melanoma) [µM] | GI50 (P388/ADR leukemia) [µM] | GI50 (DMS 114 small cell lung) [µM] | GI50 (KM20L2 colon) [µM] | GI50 (SN12K1 renal) [µM] | GI50 (DLD-1 colon) [µM]
Cc1cc(-c2ccc(N=Nc3ccc4c(S(=O)(=O)O)cc(S(=O)(=O)O)c(N)c4c3O)c(C)c2)ccc1N=Nc1ccc2c(S(=O)(=O)O)cc(S(=O)(=O)O)c(N)c2c1O | > 100 | > 100 | > 100 | > 100 | > 100 | > 100 | > 100 | > 100 | > 100 | – | – | – | – | – | – | – | – | – | – | –
CC(C)C(NCc1c2ccccc2[n+](C)c2ccccc12)C(=O)O (centres undefined) | 17.8 | 24.8 | 13.3 | 13.8 | 21.2 | – | 5.79 | 7.33 | – | 14 | 17.1 | – | – | – | – | – | – | – | – | –
CC1CC(c2ccccc2)=Nc2ccccc2S1 (centres undefined) | > 100 | > 100 | > 100 | > 100 | > 100 | – | > 100 | > 100 | – | > 100 | > 100 | – | – | – | – | – | – | – | – | –
O=C(O)C1CCC(=O)N1C(=O)COc1cc(Cl)c(Cl)cc1Cl (centres undefined) | > 100 | > 100 | > 100 | – | > 100 | – | > 100 | > 100 | – | > 100 | > 100 | – | – | – | – | – | – | – | – | –
[C-]#[O+].[Cl][Sn]([Cl])[Cl].[Cl][Sn]([Cl])[Cl].[Pt].c1cnc2c(c1)ccc1cccnc12 | 44.3 | 66 | 6 | – | > 31.6 | 5.1 | > 39.4 | 4.54 | 16.7 | – | – | 9.1 | 15.8 | 2.59 | 3.25 | 1.78 | 4.14 | 1.97 | 3.37 | –
Cc1ccc(NC(=O)CC/C(CC(=O)C(C)(C)C)=N/NC(=O)c2cc3ccccc3cc2O)cc1C | – | > 100 | – | > 100 | > 100 | – | > 100 | > 100 | – | > 100 | > 100 | – | – | – | – | – | – | – | – | –
CN(Cc1cnc2nc(N)nc(N)c2n1)c1ccc(C(=O)NC(CCC(=O)O)C(=O)O)c2ccccc12 (centres undefined) | – | – | – | – | – | – | – | – | – | – | – | – | – | 0.000946 | 0.0725 | – | – | 0.00489 | – | 0.00257
COc1ccc(/C(C=O)=C(\Cl)c2ccc(OC)c(OC)c2)cc1 | 50.2 | > 100 | > 100 | > 100 | > 100 | – | > 100 | > 100 | – | > 100 | > 100 | – | – | – | – | – | – | – | – | –
CCC12CCC[C@@]13C=C[C@H](O3)C(C)(C)C2=O (some centres undefined) | – | > 100 | > 100 | > 100 | > 100 | – | > 100 | > 100 | – | > 100 | > 100 | – | – | – | – | – | – | – | – | –
